Source: patent US20230145342A1, “COMBINATORY TREATMENT” (AALTO UNIVERSITY FOUNDATION SR, priority 2020, published 2023)
“Also recorded” adds a separate entry of the source.

Key:
[1] = tested on: MDR-Acinetobacter baumannii 5542; test: Resistance profile of strain (Table 3); type: cell-based; settings: strain 5542 A. baumannii
[2] = tested on: P. aeruginosa PAO1; test: Antibiotic resistance buildup, daily MIC over 14 consecutive days; type: cell-based, Pseudomonas aeruginosa; settings: coadministration of P[5]a with the antibiotic, 14-day period
Text: Area below the yellow line means that the bacterium is classified as susceptible to the antibiotic. The area in between yellow and red means that the bacterium is intermediate susceptible to the antibiotic. The area above the red line means that the bacterium is classified as resistant to the antibiotic (According to the “Performance Standards for Antimicrobial Susceptibility Testing”, which is maintained by the Clinical and Laboratory Standards Institute).
Because of this, a combined administration of P[5]a with a variety of antibiotics was tested. MIC values with two different antibiotics, meropenem and cefepime (FIG. 2) were tested, over a period of 14 consecutive days (which more than surpasses the length of normal treatments, 7-10 days), when administered together with and without 2.5 mM P[5]a.
In this experiment, the minimum inhibitory concentration MIC was analyzed daily for 14 consecutive days, and the highest MIC values (so the highest concentration of antibiotic where the bacteria still grew) was used for the next day. This way, the buildup of resistance over time can be monitored. In FIG. 2, the area below the yellow line means that the bacterium is classified as susceptible to the antibiotic, the area in between yellow and red means that the bacterium is intermediate susceptible to the antibiotic and the area above the red line means that the bacterium is classified as resistant to the antibiotic (According to the “Performance Standards for Antimicrobial Susceptibility Testing”, which is maintained by the Clinical and Laboratory Standards Institute).
The effect of P[5]a on encountering resistance development in a pathogenic Gram-negative bacterium, Pserudomonas aeruginosa, strain PA01 was studied over 14-day period. The development of resistance over 14 continuous days by the pathogen PAO1 towards treatment with four clinically relevant antibiotics (meropenem, cefepime, aztreonam and tobramycin) and P[5]a was compared. […] In all antibiotic treatments, reduced susceptibility was observed from day 4 onwards, with complete resistance to all treatments after 12 days.
The effect of P[5]a on the enhancement of the penetration of coadministered antibiotics having intracellular targets (aztreonam, cefepime, meropenem and tobramycin) was studied over 14-day period in a pathogenic Gram-negative bacterium, Pserudomonas aeruginosa, strain PA01. […] MIC values were categorized in three groups according to the Clinical and Laboratory Standards Institute: susceptible, intermediate susceptible and resistant.

[3] = tested on: Pseudomonas aeruginosa 2798 (ATCC 2798); test: Resistance profile of strain (Table 3); type: cell-based; settings: strain 2798 (ATCC 2798)
Text: (§1) The effect of P[5]a on the penetration and efficacy of coadministered antibiotics Amikacin (a), Cefepime (b), Ceftazidime (c) and Meropenem (d) in MDR resistant clinical isolates were studied.

[4] = Dye displacement (competitive-binding) assay between P[5]a host and HSL guests; settings: HSL guest titrated against P[5]a host with bound fluorescent dye
Text: The addition of a HSL “[…]” displaces the […] from the cavity again, resulting in a shift back to 468 nm.
To measure the binding affinity between the macrocyclic “Host” P[5]a and different homoserine lactone “guests” a competitive-binding assay was used. In this case, a “guest” HSL solution is titrated against a solution of the P[5]a “host”, which has a fluorescent dye bound in its cavity, […], which has a known affinity for the P[5]a. The ratio of P[5]a to HSL enables calculation of the affinity.

[5] = tested on: Pseudomonas aeruginosa 5539; test: Resistance profile of strain (Table 3); type: cell-based; settings: strain 5539
[6] = tested on: Pseudomonas aeruginosa 5827; test: Resistance profile of strain (Table 3); type: cell-based; settings: strain 5827
[7] = tested on: Pseudomonas aeruginosa 5542; test: Resistance profile of strain (Table 3); type: cell-based; settings: strain 5542 P. aeruginosa
Text: as §1

[8] = tested on: Pseudomonas aeruginosa 5832; test: Resistance profile of strain (Table 3); type: cell-based; settings: strain 5832
Text: as §1

[9] = tested on: Pseudomonas aeruginosa 5550; test: Resistance profile of strain (Table 3); type: cell-based; settings: strain 5550
Text: as §1

[10] = tested on: Pseudomonas aeruginosa 5834; test: Resistance profile of strain (Table 3); type: cell-based; settings: strain 5834
Text: as §1

CC[C@H]1OC(=O)[C@H](C)[C@@H](O[C@H]2C[C@@](C)(OC)[C@@H](O)[C@H](C)O2)[C@H](C)[C@@H](O[C@@H]2O[C@H](C)C[C@H](N(C)C)[C@H]2O)[C@](C)(O)C[C@@H](C)CN(C)[C@H](C)[C@@H](O)[C@]1(C)O [Azithromycin, azithromycin]
Antibiotic resistance (category) [1]: Resistant to Amikacin, Amoxicillin-clavulanate, Ampicillin,

C[C@H]1[C@H](NC(=O)/C(=N\OC(C)(C)C(=O)O)c2csc(N)n2)C(=O)N1S(=O)(=O)O [aztreonam]
development of resistance by the pathogen to the respective antibiotic [2]: greatly slowed | Antibiotic resistance (category) [3]: Intermediate susceptible

CCCCCCCCCC(=O)CC(=O)NC1CCOC1=O (stereo not shown) [3-Oxo-C12 HSL]
displacement of dye from P[5]a cavity (binding affinity) [4]: high binding affinity; also recorded: strong displacement

CO/N=C(\C(=O)N[C@@H]1C(=O)N2C(C(=O)O)=C(COC(N)=O)CS[C@H]12)c1ccco1 [cefurixome]
Antibiotic resistance (category) [5]: resistant

CC1=C(C(=O)O)N2C(=O)[C@@H](NC(=O)[C@H](N)c3ccccc3)[C@H]2SC1 [Cefalexin]
Antibiotic resistance (category) [1]: Resistant to Amikacin, Amoxicillin-clavulanate, Ampicillin,

Cc1cc(NS(=O)(=O)c2ccc(N)cc2)no1 [Sulfamethoxazole]
Antibiotic resistance (category) [1]: Resistant to Amikacin, Amoxicillin-clavulanate, Ampicillin,

CCCC(=O)N[C@H]1CCOC1=O [C4]
displacement of dye from P[5]a cavity (binding affinity) [4]: Poor displacement

C[C@@H](O)[C@H]1C(=O)N2C(C(=O)O)=C(S[C@@H]3CN[C@H](C(=O)Nc4cccc(C(=O)O)c4)C3)[C@H](C)[C@H]12 [Ertapenem, ertapenem]
Antibiotic resistance (category) [1]: Resistant to Amikacin, Amoxicillin-clavulanate, Ampicillin,

C[C@@H](O)[C@H]1C(=O)N2C(C(=O)O)=C(S[C@@H]3CN[C@H](CNS(N)(=O)=O)C3)[C@H](C)[C@H]12 [Doripenem, doripenem]
Antibiotic resistance (category) [3]: Aztreonam & Cefepime, Resistant to Ceftazidime, Cirpofloxacin,

NCC[C@H](O)C(=O)N[C@@H]1C[C@H](N)[C@@H](O[C@H]2O[C@H](CN)[C@@H](O)[C@H](O)[C@H]2O)[C@H](O)[C@H]1O[C@H]1O[C@H](CO)[C@@H](O)[C@H](N)[C@H]1O [amikacin, Amikacin]
Antibiotic resistance (category) [5]: Susceptible | Antibiotic resistance (value given with the category, MIC) [5]: 8 µg | Antibiotic resistance (category) [1]: Resistant to Amikacin, Amoxicillin-clavulanate, Ampicillin, | Antibiotic resistance (category) [6]: Intermediate susceptible | Antibiotic resistance (value given with the category, MIC) [6]: 32 µg | Antibiotic resistance (category) [7]: intermediate susceptible | Antibiotic resistance (value given with the category, MIC) [7]: 16 µg | Antibiotic resistance (category) [8]: Intermediate susceptible | Antibiotic resistance (value given with the category, MIC) [8]: 16 µg | Antibiotic resistance (category) [9]: Intermediate susceptible | Antibiotic resistance (value given with the category, MIC) [9]: 32 µg | Antibiotic resistance (category) [3]: Susceptible | Antibiotic resistance (category) [10]: intermediate susceptible | Antibiotic resistance (value given with the category, MIC) [10]: 16 µg

Piperacillin-tazobactam
Antibiotic resistance (category) [5]: resistant | Antibiotic resistance (category) [1]: Resistant to Amikacin, Amoxicillin-clavulanate, Ampicillin, | Antibiotic resistance (category) [3]: Aztreonam & Cefepime, Resistant to Ceftazidime, Cirpofloxacin,

Colistin
Antibiotic resistance (category) [3]: Susceptible

CCCC(=O)CC(=O)N[C@H]1CCOC1=O [3-Oxo-C6]
displacement of dye from P[5]a cavity (binding affinity) [4]: Poor displacement

CN(C)c1cc(NC(=O)CNC(C)(C)C)c(O)c2c1C[C@H]1C[C@H]3[C@H](N(C)C)C(O)=C(C(N)=O)C(=O)[C@@]3(O)C(O)=C1C2=O [Tigecycline]
Antibiotic resistance (category) [1]: Resistant to Amikacin, Amoxicillin-clavulanate, Ampicillin,

Amoxicillin-clavulanate
Antibiotic resistance (category) [1]: Resistant to Amikacin, Amoxicillin-clavulanate, Ampicillin,

NC[C@H]1O[C@H](O[C@H]2[C@H](O)[C@@H](O[C@H]3O[C@H](CO)[C@@H](O)[C@H](N)[C@H]3O)[C@H](N)C[C@@H]2N)[C@H](N)C[C@@H]1O [tobramycin]
Antibiotic resistance (category) [5]: resistant | development of resistance by the pathogen to the respective antibiotic [2]: greatly slowed | Antibiotic resistance (category) [1]: Resistant to Amikacin, Amoxicillin-clavulanate, Ampicillin,

C[C@@H](O)[C@H]1C(=O)N2C(C(=O)O)=C(S[C@@H]3CN[C@H](C(=O)N(C)C)C3)[C@H](C)[C@H]12 [meropenem, Meropenem]
Antibiotic resistance (category) [5]: resistant | Antibiotic resistance (value given with the category, MIC) [5]: 8 µg | development of resistance by the pathogen to the respective antibiotic [2]: greatly slowed | Antibiotic resistance (category) [1]: Resistant to Amikacin, Amoxicillin-clavulanate, Ampicillin, | Antibiotic resistance (category) [6]: resistant | Antibiotic resistance (value given with the category, MIC) [6]: 16 µg | Antibiotic resistance (category) [7]: resistant | Antibiotic resistance (value given with the category, MIC) [7]: 8 µg | Antibiotic resistance (category) [8]: resistant | Antibiotic resistance (value given with the category, MIC) [8]: 8 µg | Antibiotic resistance (category) [9]: resistant | Antibiotic resistance (value given with the category, MIC) [9]: 8 µg | Antibiotic resistance (category) [3]: Aztreonam & Cefepime, Resistant to Ceftazidime, Cirpofloxacin, | Antibiotic resistance (category) [10]: resistant | Antibiotic resistance (value given with the category, MIC) [10]: cefepime 64 ug, ceftazidime 64 ug and meropenem 64 ug

CC1(C)S[C@@H]2[C@H](NC(=O)[C@H](N)c3ccccc3)C(=O)N2[C@H]1C(=O)O [Ampicillin]
Antibiotic resistance (category) [1]: Resistant to Amikacin, Amoxicillin-clavulanate, Ampicillin,

CCCCCC(=O)CC(=O)N[C@H]1CCOC1=O [3-Oxo-C8 HSL]
displacement of dye from P[5]a cavity (binding affinity) [4]: Medium displacement

CCCCCCCCCCCC(O)CC(=O)N[C@@H]1CCOC1=O (stereo partly shown) [3-OH—C14 HSL]
displacement of dye from P[5]a cavity (binding affinity) [4]: high binding affinity; also recorded: strong displacement
